Here are results for one compound from PMC12594171, “DKK3-LRP1 complex and a chemical inhibitor regulate Aβ clearance in models of Alzheimer’s disease” (Science Advances, 2025).

pKd: −log10 of the molar value.

The test addresses low-density lipoprotein receptor-related protein 1 (LRP1), minireceptor mLRPIV (Homo sapiens, UniProt Q07954). The test is described as follows: SPR (Biacore T200, mLRPIV immobilized on CM5 chip); also inhibits DKK3 binding to mLRPIV by SPR, IC50 […]. On the technique in general: In SPR one partner is held on a chip, and binding of the other changes the refractive index at the surface.

Sequence of low-density lipoprotein receptor-related protein 1 (LRP1), minireceptor mLRPIV (Q07954 3331-3778 limits assumed): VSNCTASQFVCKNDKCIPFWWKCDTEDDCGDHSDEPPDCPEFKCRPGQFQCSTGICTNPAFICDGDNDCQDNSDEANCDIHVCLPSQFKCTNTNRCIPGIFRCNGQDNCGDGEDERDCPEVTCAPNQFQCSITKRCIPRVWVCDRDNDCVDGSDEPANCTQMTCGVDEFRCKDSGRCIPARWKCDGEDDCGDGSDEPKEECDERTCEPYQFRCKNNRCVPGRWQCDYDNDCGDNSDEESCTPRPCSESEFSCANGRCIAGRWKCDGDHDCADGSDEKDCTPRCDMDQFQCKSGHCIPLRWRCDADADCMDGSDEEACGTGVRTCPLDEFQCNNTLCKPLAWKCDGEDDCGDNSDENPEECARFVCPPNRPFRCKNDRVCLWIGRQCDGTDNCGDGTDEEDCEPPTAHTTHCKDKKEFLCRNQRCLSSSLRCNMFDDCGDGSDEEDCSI

Compound `Cc1nn(-c2ccc(F)cc2)c(C)c1CNC1CCN(C2CC2)CC1` [SJ-300] showed a pKd of 5.10.

Usually pKd stands for −log10 of the Kd, conventionally taken in molar units. A lower pKd goes with a large Kd.
